Assay results reported in ChEMBL document CHEMBL4507273 (2021).
pKi: −log10 of the molar value.

Assays:
[1] = system: Proto-oncogene tyrosine-protein kinase receptor Ret (Homo sapiens), P07949 [V804M]; conditions: Compound concentration 1000.0 nM
[2] = target: cGMP-dependent protein kinase 1 (Homo sapiens) (UniProt Q13976); conditions: Compound concentration 1000.0 nM
[3] = target: Myosin-IIIb (Homo sapiens) (UniProt Q8WXR4); conditions: Compound concentration 1000.0 nM
[4] = target: Ephrin type-B receptor 2 (Homo sapiens) (UniProt P29323); conditions: Compound concentration 1000.0 nM
[5] = target: Tyrosine-protein kinase ABL1 (Homo sapiens) (UniProt P00519); conditions: Compound concentration 1000.0 nM
[6] = target: Ephrin type-A receptor 2 (Homo sapiens) (UniProt P29317); conditions: Compound concentration 1000.0 nM
[7] = target: Bone morphogenetic protein receptor type-1A (Homo sapiens) (UniProt P36894); conditions: Compound concentration 1000.0 nM
[8] = system: Mast/stem cell growth factor receptor Kit (Homo sapiens), P10721 [D816H]; conditions: Compound concentration 1000.0 nM
[9] = target: Activin receptor type-2B (Homo sapiens) (UniProt Q13705); conditions: Compound concentration 1000.0 nM
[10] = target: Myosin light chain kinase (Homo sapiens) (UniProt Q32MK0); conditions: Compound concentration 1000.0 nM
[11] = target: Ephrin type-A receptor 5 (Homo sapiens) (UniProt P54756); conditions: Compound concentration 1000.0 nM
[12] = target: Mitogen-activated protein kinase 12 (Homo sapiens) (UniProt P53778); conditions: Compound concentration 1000.0 nM
[13] = target: RAC-alpha serine/threonine-protein kinase (Homo sapiens) (UniProt P31749); conditions: Compound concentration 1000.0 nM
Mu-type opioid receptor = Mu-type opioid receptor (Homo sapiens, UniProt P35372); conditions: Compound concentration 10.0 uM
[14] = target: Son of sevenless homolog 2 (Homo sapiens, UniProt Q07890, G12C)
[15] = target: Sodium-dependent noradrenaline transporter (Homo sapiens, UniProt P23975); assay: GPCRScan assay: inhibition of NET; design: radioligand conc. used [nm] 1.3 – 5.0, parental cells stable HEK; conditions: for pKi: read-out: Ki
[16] = target: Serine/threonine-protein kinase PLK4 (Homo sapiens) (UniProt O00444); conditions: Compound concentration 1000.0 nM
[17] = target: Mitogen-activated protein kinase kinase kinase kinase 5 (Homo sapiens) (UniProt Q9Y4K4); conditions: Compound concentration 1000.0 nM
[18] = target: Serine/threonine-protein kinase RIO1 (Homo sapiens) (UniProt Q9BRS2); conditions: Compound concentration 1000.0 nM
[19] = target: Dual specificity mitogen-activated protein kinase kinase 6 (Homo sapiens) (UniProt P52564); conditions: Compound concentration 1000.0 nM
[20] = target: Tyrosine-protein kinase JAK2 (Homo sapiens) (UniProt O60674); conditions: Compound concentration 1000.0 nM
[21] = target: Serine/threonine-protein kinase Nek6 (Homo sapiens) (UniProt Q9HC98); conditions: Compound concentration 1000.0 nM
[22] = system: Mast/stem cell growth factor receptor Kit (Homo sapiens), P10721 [V559D]; conditions: Compound concentration 1000.0 nM
[23] = target: Cyclin-dependent kinase 17 (Homo sapiens) (UniProt Q00537); conditions: Compound concentration 1000.0 nM
[24] = target: Glycogen synthase kinase-3 beta (Homo sapiens) (UniProt P49841); conditions: Compound concentration 1000.0 nM
[25] = target: 5-hydroxytryptamine receptor 1D (Homo sapiens, UniProt P28221); conditions: Compound concentration 10.0 uM
[26] = target: Activin receptor type-1-like (Homo sapiens) (UniProt P37023); conditions: Compound concentration 1000.0 nM
[27] = target: Serine/threonine-protein kinase SIK2 (Homo sapiens) (UniProt Q9H0K1); conditions: Compound concentration 1000.0 nM
[28] = system: Fibroblast growth factor receptor 3 (Homo sapiens), P22607 [G697C]; conditions: Compound concentration 1000.0 nM
[29] = target: Mitogen-activated protein kinase 6 (Homo sapiens) (UniProt Q16659); conditions: Compound concentration 1000.0 nM
[30] = target: Serine/threonine-protein kinase ULK2 (Homo sapiens) (UniProt Q8IYT8); conditions: Compound concentration 1000.0 nM
[31] = target: Vascular endothelial growth factor receptor 1 (Homo sapiens) (UniProt P17948); conditions: Compound concentration 1000.0 nM
[32] = target: Serine/threonine-protein kinase haspin (Homo sapiens) (UniProt Q8TF76); conditions: Compound concentration 1000.0 nM
[33] = system: Receptor-type tyrosine-protein kinase FLT3 (Homo sapiens), P36888 [N841I]; conditions: Compound concentration 1000.0 nM
[34] = target: Phosphatidylinositol 3-kinase catalytic subunit type 3 (Homo sapiens) (UniProt Q8NEB9); conditions: Compound concentration 1000.0 nM
[35] = target: LIM domain kinase 2 (Homo sapiens) (UniProt P53671); conditions: Compound concentration 1000.0 nM
[36] = target: Phosphorylase b kinase regulatory subunit alpha, liver isoform (Homo sapiens) (UniProt P46019); conditions: Compound concentration 1000.0 nM
[37] = target: Mitogen-activated protein kinase kinase kinase 2 (Homo sapiens) (UniProt Q9Y2U5); conditions: Compound concentration 1000.0 nM
[38] = target: Fibroblast growth factor receptor 4 (Homo sapiens) (UniProt P22455); conditions: Compound concentration 1000.0 nM
[39] = system: Epidermal growth factor receptor (Homo sapiens), P00533 [L861Q]; conditions: Compound concentration 1000.0 nM
[40] = target: Protein-tyrosine kinase 6 (Homo sapiens) (UniProt Q13882); conditions: Compound concentration 1000.0 nM
[41] = target: Cyclin-dependent kinase 8 (Homo sapiens) (UniProt P49336); conditions: Compound concentration 1000.0 nM
[42] = target: Guanine nucleotide exchange factor DBS (Homo sapiens, UniProt O15068); assay: CDC42 activation by DBS assay
[43] = target: Ephrin type-B receptor 6 (Homo sapiens) (UniProt O15197); conditions: Compound concentration 1000.0 nM
[44] = target: Rho-associated protein kinase 2 (Homo sapiens) (UniProt O75116); conditions: Compound concentration 1000.0 nM
[45] = target: Leukocyte tyrosine kinase receptor (Homo sapiens) (UniProt P29376); conditions: Compound concentration 1000.0 nM

Sequence of Sodium-dependent noradrenaline transporter (P23975 whole entry): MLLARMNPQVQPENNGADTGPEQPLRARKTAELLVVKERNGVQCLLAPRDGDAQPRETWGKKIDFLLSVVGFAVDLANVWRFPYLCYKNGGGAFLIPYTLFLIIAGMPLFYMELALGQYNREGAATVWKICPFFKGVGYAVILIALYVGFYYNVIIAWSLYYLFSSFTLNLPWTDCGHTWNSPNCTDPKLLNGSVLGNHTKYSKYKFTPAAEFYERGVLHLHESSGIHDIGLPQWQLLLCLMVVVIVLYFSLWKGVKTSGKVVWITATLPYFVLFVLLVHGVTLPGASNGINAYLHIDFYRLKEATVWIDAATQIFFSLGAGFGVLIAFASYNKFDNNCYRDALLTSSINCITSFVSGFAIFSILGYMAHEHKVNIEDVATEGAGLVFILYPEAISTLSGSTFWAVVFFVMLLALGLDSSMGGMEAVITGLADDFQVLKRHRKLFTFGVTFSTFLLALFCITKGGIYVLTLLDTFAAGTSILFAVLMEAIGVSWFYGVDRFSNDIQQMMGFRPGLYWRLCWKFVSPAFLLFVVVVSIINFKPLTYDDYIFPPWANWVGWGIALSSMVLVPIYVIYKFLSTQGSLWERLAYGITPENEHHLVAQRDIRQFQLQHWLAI
Sequence of Tyrosine-protein kinase ABL1 (Homo sapiens) (P00519 whole entry): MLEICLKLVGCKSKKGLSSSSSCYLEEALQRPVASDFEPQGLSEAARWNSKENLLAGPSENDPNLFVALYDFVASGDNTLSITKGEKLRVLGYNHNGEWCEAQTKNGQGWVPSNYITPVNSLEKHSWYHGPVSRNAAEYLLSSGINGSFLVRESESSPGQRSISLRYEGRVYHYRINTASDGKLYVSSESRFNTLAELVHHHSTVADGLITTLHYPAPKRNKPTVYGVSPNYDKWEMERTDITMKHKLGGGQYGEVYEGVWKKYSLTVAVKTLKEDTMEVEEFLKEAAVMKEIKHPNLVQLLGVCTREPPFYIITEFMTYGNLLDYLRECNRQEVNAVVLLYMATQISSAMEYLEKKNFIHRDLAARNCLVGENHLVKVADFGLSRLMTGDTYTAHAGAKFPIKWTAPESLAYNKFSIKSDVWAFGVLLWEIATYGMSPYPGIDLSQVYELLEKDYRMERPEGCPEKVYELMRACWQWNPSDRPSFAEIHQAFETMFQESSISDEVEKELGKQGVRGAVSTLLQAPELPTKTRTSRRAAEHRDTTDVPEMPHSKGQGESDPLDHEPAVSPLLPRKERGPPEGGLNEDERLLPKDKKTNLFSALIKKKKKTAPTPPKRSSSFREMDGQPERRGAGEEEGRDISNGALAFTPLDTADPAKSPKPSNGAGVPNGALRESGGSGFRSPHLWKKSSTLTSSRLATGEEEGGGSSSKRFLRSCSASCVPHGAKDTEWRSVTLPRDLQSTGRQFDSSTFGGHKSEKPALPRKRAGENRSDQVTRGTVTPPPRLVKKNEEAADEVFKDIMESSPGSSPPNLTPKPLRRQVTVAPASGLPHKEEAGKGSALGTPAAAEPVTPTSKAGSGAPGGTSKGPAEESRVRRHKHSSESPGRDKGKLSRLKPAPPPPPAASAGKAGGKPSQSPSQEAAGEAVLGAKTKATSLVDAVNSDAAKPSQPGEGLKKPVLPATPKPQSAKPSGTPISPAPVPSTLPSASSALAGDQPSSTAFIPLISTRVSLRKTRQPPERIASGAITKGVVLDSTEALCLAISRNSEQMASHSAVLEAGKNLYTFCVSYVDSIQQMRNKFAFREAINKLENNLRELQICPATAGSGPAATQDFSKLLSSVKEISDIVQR
Sequence of cGMP-dependent protein kinase 1 (Homo sapiens) (Q13976 whole entry): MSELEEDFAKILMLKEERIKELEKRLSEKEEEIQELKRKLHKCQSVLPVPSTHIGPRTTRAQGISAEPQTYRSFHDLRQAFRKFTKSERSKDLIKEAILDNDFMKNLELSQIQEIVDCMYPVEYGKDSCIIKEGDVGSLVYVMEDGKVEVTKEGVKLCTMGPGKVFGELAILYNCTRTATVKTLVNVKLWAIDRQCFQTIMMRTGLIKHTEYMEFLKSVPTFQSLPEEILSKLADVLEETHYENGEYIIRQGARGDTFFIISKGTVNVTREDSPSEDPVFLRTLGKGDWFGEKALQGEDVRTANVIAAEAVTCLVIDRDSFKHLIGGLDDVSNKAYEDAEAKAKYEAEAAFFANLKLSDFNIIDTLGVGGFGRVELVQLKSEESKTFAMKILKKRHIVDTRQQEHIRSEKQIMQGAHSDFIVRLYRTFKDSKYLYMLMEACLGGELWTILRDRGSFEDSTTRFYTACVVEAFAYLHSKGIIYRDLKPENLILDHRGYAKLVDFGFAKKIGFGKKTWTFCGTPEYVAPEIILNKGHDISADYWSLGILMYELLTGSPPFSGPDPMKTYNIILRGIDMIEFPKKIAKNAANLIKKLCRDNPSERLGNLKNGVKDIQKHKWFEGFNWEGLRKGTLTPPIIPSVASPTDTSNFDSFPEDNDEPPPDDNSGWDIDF
Sequence of Ephrin type-B receptor 2 (Homo sapiens) (P29323 whole entry): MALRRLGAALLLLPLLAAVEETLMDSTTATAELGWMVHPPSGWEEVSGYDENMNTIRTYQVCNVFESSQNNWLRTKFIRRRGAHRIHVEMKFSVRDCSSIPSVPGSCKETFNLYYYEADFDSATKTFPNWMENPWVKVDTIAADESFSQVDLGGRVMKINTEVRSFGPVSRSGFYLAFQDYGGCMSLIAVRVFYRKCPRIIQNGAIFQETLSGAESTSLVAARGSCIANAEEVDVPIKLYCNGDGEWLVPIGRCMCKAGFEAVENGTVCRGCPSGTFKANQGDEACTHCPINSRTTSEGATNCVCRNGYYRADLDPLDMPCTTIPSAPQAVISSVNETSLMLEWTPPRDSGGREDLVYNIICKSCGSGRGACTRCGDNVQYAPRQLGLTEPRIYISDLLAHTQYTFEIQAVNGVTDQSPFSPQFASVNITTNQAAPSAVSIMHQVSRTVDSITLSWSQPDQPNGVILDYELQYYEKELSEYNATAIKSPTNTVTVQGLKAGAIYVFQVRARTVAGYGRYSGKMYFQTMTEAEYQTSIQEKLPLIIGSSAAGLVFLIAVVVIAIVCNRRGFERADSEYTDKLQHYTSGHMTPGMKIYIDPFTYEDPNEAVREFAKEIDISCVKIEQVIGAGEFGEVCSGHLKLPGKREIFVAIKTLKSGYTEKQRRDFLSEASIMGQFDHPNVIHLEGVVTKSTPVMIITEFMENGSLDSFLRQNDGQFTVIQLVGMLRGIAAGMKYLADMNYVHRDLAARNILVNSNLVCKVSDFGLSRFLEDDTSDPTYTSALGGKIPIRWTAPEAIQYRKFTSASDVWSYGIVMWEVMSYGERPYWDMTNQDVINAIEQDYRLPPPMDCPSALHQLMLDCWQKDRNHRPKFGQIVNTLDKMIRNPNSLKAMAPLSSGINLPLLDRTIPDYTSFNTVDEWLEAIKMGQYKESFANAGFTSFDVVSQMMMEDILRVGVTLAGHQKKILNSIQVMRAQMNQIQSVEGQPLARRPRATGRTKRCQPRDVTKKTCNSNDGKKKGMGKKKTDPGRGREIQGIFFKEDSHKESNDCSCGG
Sequence of Bone morphogenetic protein receptor type-1A (Homo sapiens) (P36894 whole entry): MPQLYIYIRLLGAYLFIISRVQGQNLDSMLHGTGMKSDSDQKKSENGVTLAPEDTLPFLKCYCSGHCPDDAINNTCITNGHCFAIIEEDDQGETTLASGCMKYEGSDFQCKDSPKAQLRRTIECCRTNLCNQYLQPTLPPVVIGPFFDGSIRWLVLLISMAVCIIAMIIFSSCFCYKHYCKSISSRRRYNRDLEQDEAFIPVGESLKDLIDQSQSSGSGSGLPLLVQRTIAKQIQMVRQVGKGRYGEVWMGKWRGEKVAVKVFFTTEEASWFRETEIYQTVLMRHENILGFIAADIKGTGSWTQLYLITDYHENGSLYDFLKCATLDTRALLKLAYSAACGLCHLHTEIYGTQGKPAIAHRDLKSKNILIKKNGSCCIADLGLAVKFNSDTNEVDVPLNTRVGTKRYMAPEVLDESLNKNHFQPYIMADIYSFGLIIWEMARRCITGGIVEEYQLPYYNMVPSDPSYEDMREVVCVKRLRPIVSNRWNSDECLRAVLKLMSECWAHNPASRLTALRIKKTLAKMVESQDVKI
Sequence of Mu-type opioid receptor (P35372 whole entry): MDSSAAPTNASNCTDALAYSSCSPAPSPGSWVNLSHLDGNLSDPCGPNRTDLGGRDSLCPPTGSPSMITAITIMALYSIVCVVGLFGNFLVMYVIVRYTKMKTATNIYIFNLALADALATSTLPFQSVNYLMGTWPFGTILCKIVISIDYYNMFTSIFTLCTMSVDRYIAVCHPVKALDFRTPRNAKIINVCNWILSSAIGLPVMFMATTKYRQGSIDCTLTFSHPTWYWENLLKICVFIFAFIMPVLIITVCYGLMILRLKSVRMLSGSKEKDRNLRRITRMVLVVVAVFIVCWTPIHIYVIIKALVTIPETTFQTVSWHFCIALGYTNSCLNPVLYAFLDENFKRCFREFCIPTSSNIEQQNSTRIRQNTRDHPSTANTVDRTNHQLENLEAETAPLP
Sequence of Mitogen-activated protein kinase 12 (Homo sapiens) (P53778 whole entry): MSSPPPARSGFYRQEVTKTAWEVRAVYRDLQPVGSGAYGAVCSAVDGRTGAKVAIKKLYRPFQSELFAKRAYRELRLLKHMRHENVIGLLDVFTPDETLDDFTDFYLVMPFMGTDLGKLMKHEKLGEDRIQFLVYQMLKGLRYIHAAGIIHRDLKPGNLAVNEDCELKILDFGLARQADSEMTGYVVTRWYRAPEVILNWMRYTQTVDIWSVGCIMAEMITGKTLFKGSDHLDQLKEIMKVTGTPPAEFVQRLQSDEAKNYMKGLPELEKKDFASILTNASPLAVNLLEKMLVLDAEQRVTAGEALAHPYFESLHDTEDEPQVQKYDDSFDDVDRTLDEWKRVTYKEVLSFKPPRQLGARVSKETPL

CNCc1ccccc1-c1csc([C@H](C)Nc2nc(C)nc3cc(OC)c(OC)cc23)c1 [BAY-294]
inactive: residual activity [1] 100% | residual activity [2] 100% | residual activity [3] 87% | residual activity [4] 100% | residual activity [5] 100% | residual activity [6] 80% | residual activity [7] 100% | residual activity [8] 95% | residual activity [9] 100% | residual activity [10] 100% | residual activity [11] 100% | residual activity [12] 100% | residual activity [13] 100% | residual activity [16] 76% | residual activity [17] 100% | residual activity [18] 96% | residual activity [19] 100% | residual activity [20] 63% | residual activity [21] 100% | residual activity [22] 100% | residual activity [23] 100% | residual activity [24] 100% | residual activity [26] 100% | residual activity [27] 100% | residual activity [28] 100% | residual activity [29] 100% | residual activity [30] 100% | residual activity [31] 91% | residual activity [32] 100% | residual activity [33] 100% | residual activity [34] 93% | residual activity [35] 100% | residual activity [36] 100% | residual activity [37] 100% | residual activity [38] 100% | residual activity [39] 97% | residual activity [40] 100% | residual activity [41] 84% | residual activity [43] 87% | residual activity [44] 100% | residual activity [45] 98%
5.68: pKi [15]
> 20 µM (not active): IC50 [14] | IC50 [42]
active: inhibition (Mu-type opioid receptor) 67.3% | inhibition [25] 98.9%

CNCc1ccccc1-c1csc([C@@H](C)Nc2nc(C)nc3cc(OC)c(OC)cc23)c1 [BAY-293]
0.881 µM: Ki ([15]; read-out: pKi (converted))
inactive: residual activity [1] 90% | residual activity [2] 100% | residual activity [4] 100% | residual activity [5] 97% | residual activity [6] 76% | residual activity [7] 91% | residual activity [8] 85% | residual activity [9] 100% | residual activity [10] 96% | residual activity [11] 88% | residual activity [12] 100% | residual activity [13] 100% | inhibition (Mu-type opioid receptor) 46.8% | residual activity [16] 74% | residual activity [17] 100% | residual activity [18] 100% | residual activity [19] 86% | residual activity [20] 67% | residual activity [21] 96% | residual activity [22] 100% | residual activity [23] 94% | residual activity [24] 90% | residual activity [26] 87% | residual activity [27] 100% | residual activity [28] 85% | residual activity [29] 100% | residual activity [30] 100% | residual activity [31] 87% | residual activity [32] 98% | residual activity [33] 77% | residual activity [34] 100% | residual activity [35] 96% | residual activity [36] 100% | residual activity [37] 87% | residual activity [38] 100% | residual activity [39] 97% | residual activity [40] 100% | residual activity [41] 68% | residual activity [43] 98% | residual activity [44] 93% | residual activity [45] 97%
> 20 µM (not active): IC50 [14] | IC50 [42]
active: residual activity [3] 47% | inhibition [25] 98.1%
6.01: pKi [15]
